Seven compounds from patent US10011571B2, “Preparation method for aromatic heterocyclic compound used as selective JAK3 and/or JAK1 kinase inhibitor and application of aromatic heterocyclic compound” (SHENZHEN CHIPSCREEN BIOSCIENCES, LTD., priority 2014, dated 2018) can be followed below.

One assay relates to HeLa cells. Description: Cell growth activity assay (MTS), HeLa cell model. To be noted: Homo sapiens, HeLa, 72 h, read-out: HeLa % growth rate. More on the design: activity: dose or concentration left out as unconfirmed. It counts as cell-based, human. The text has this: (§1) MTS assay is a routine method for cell toxicity detection. The basic principle is based on the capacity of dehydrogenase in the mitochondria of living cells to reduce a novel yellow […] MTS to formazan, so that the amount of living cells is proportional to the amount of formazan product by detecting the absorbance at 490 nm (OD), thereby speculating the amount of living cells according to the OD value, and understanding the capacity of the test compound to inhibit the growth of cells or to kill the cells.
HeLa cell is a human cervical cancer cell line, and belongs to epithelial tumor cell line; HUVEC is a human umbilical vein endothelial cell, and belongs to primary endothelial cell; both types of cells express all subtypes except for JAK3.
The change of JAK kinase activity has no significant influence on other cell types except for the immune cells, and both cell models mentioned above are mainly used to evaluate whether there are any other kinase targets besides JAK kinases or there are nonselective cell toxicities.
In this experiment, a cultured cell model is incubated with the test compounds at different concentrations for a specific duration. The effect of the treatment by the test compound on the growth of cells is detected using MTS assay.
(§2) MTS is performed according to routine procedure in a 96-well plate.
The model cells are inoculated into each well of the 96-well plate at an appropriate concentration (about 5000 cells/well). After 24 h, the test compounds are added at different concentration gradients (the highest final concentration is 40 μM). A solvent control (DMSO) and a negative control are also performed at the same time. Each experiment is repeated for 3 times. The cells are detected after cultured for another 72 h.
After all culture medium is aspirated out of the well, 100 μL fresh medium and 20 μL pre-formulated mixture of MTS and PMS (in a ratio of 20:1) are added to each well. After incubation at 37° C. for 2 h, it is then detected by a microplate reader (490 nm).
The cell growth inhibitory rate and GI50 of the test compound are calculated as above.
Based on the above method, cytological evaluation is performed to the compounds described herein (for the detection of CTLL-2 cell, the concentration of the test compound is 300 nM; […]).

A further assay deals with CTLL-2 cells. As to the kind of experiment: Cell growth activity assay (MTS), CTLL-2 cell model. To be noted: Mus musculus, CTLL-2, 300 nM, 24 h, read-out: CTLL-2 % growth rate @300 nM. It counts as cell-based, mouse.
Text: as §1
In this experiment, mouse T-cell line CTLL-2 was used. The proliferation and growth of this cell line strongly depend on IL-2, and it is commonly used to evaluate the active titer of exogenous IL-2. By inhibiting the activity of kinase JAK1/3, the proliferation of CTLL-2 can be inhibited under in vitro culture. The activation and proliferation of T-cell is also important pathological characteristics for various immunological diseases. Thus, this model is also pathologically related.
By comparing the change of absorbance generated by the cells treated by the test compounds using MTS assay, the growth inhibitory activity of the test compounds on the model cells can be realized, and thereby potential inhibitory activity of the compounds on JAK1/3 pathway can be evaluated.
as §2
The model cells are inoculated into each well of the 96-well plate at an appropriate concentration (about 20,000 cells/well). After 24 h, the test compounds are added at different concentration gradients (the highest concentration of 10 μM). A solvent control (DMSO) and a negative control are also performed at the same time. Each experiment is repeated for 3 times. The cells are detected after cultured for another 24 h.
CTLL-2 is a suspended cell. After incubation, 20 μL pre-formulated mixture of MTS and PMS (in a ratio of 20:1) is directly added to each well. After incubation at 37° C. for 2 h, it is then detected by a microplate reader (490 nm).
The effect of the test compound on cell growth is calculated by comparing the change of OD values between the test well and the solvent control well, after subtracting the background of the negative control. For the test compounds at different concentration gradients, the inhibitory rates on the growth of model cells and their half-growth inhibitory concentrations (GI50) are each calculated.
Based on the above method, cytological evaluation is performed to the compounds described herein (for the detection of CTLL-2 cell, the concentration of the test compound is 300 nM; for the detection of HeLa and HUVEC cell, the concentration of the test compound is […]).

Another assay addresses JAK1 (Homo sapiens (Human), UniProt P23458). As to the kind of experiment: Z'-LYTE enzymatic activity detection, JAK1. It counts as biochemical. Conditions: test compound 300 nM; for inhibition at 0.3 µM: read-out: JAK1 % inhibitory rate @300 nM. On the procedure:
(§3) The basic principle of in vitro enzymatic activity assay is based on the difference between the intensities of fluorescence signals generated at different wavelengths (445 nm and 520 nm) from the phosphorylated substrate and non-phosphorylated substrate, in which the specific fluorescence-labeled substrate is phosphorylated by the kinase. When different test compounds are added, the inhibition of kinase activity is represented as the different degrees of substrate phosphorylation, and thus as the different intensities of fluorescence signal, based on which the inhibitory activity of the compound on the kinase can be calculated. Basic detection principle is illustrated in FIG. 1.
(§4) In an enzymatic inhibitory activity detection, GST-labeled human recombinant JAK kinases, including JAK1/PV4774, JAK2/PV4210, JAK3/PV3855, TYK2/PV4790 and their corresponding specific substrates, including Tyr6 (Z′-LYTE® Kinase Assay Kit-Tyrosine 6 Peptide, JAK1/PV4122), Tyr4 (Z′-LYTE® Kinase Assay Kit-Tyrosine 4 Peptide, JAK2/PV3193), Tyr4 (Z′-LYTE® Kinase Assay Kit-Tyrosine 4 Peptide, JAK3/PV3193), Tyr3 (Z′-LYTE® Kinase Assay Kit-[…], TYK2/PV3192) are used. In all tests, development reagent A (PV3297) was used as the test agent. All materials mentioned above were purchased from Invitrogen.
(§5) (1) Preparation: kinase reaction buffer (working solution) is prepared according to the instruction; a concentration gradient of the test compound is prepared by dilution using the kinase reaction buffer (the highest compound concentration is 10 μM for JAK1, JAK2, and TYK2 detection, and 1 μM for JAK3 detection, respectively).
(§6) (2) 10 μl of reaction system, comprising 2.5 μL test compound, 5 μL kinase reaction buffer and 2.5 μL ATP solution (provided by the kit), is mixed and reaction is performed at room temperature for 1 h.
(§7) (3) Controls, including a solvent control without the test compound, a negative control without ATP and a positive control with the phosphorylated substrate, are tested together with the detection. All tests are carried out in triplicate.
(§8) (4) After the enzymatic reaction, 5 μL pre-formulated development buffer is added, and reaction is performed at room temperature for 1 h. Subsequently, the reaction is terminated by adding 5 μL stop buffer.
(§9) (5) The fluorescence signal in each well is detected by an Ascent Fluoroskan FL reader (Thermo Labsystems) at an excitation wavelength of 400 nm, and emission wavelengths of 445 nm and 520 nm. The proportion of substrate phosphorylation is obtained by reference to the fluorescence signal intensity C445/F520.
(§10) (6) The enzymatic inhibitory rate of the test compound can be calculated based on the following equation: Inhibitory rate (%)=1−the proportion of substrate phosphorylation in the detection well/the proportion of substrate phosphorylation in the solvent control well. The half-inhibitory concentration (IC50) can be calculated using an IC50 calculator based on the inhibitory rates of phosphorylation for the test compounds at different concentration gradients.
(§11) Based on the above method, the compounds described herein are enzymatically evaluated in vitro for JAKs (the concentration of the test compound is 30 nM for JAK3 and JAK2 test, and 300 nM for JAK1 test) using Xeljanz (tofacitinib citrate) as the positive control.

The next assay addresses JAK3 (Homo sapiens (Human), UniProt P52333). As to the kind of experiment: Z'-LYTE enzymatic activity detection, JAK3. It is filed as biochemical. To be noted: test compound 30 nM; for inhibition at 0.03 µM: read-out: JAK3 % inhibitory rate @30 nM. On the procedure:
as §3, §4, §5, §6, §7, §8, §9, §10, §11

For a further assay, the target named is JAK2 (Homo sapiens (Human), UniProt O60674). As to the kind of experiment: Z'-LYTE enzymatic activity detection, JAK2. It is filed as biochemical. Conditions: test compound 30 nM; for inhibition at 0.03 µM: read-out: JAK2 % inhibitory rate @30 nM. On the procedure: as §3, §4, §5, §6, §7, §8, §9, §10, §11
Chain of JAK2 (O60674 whole entry): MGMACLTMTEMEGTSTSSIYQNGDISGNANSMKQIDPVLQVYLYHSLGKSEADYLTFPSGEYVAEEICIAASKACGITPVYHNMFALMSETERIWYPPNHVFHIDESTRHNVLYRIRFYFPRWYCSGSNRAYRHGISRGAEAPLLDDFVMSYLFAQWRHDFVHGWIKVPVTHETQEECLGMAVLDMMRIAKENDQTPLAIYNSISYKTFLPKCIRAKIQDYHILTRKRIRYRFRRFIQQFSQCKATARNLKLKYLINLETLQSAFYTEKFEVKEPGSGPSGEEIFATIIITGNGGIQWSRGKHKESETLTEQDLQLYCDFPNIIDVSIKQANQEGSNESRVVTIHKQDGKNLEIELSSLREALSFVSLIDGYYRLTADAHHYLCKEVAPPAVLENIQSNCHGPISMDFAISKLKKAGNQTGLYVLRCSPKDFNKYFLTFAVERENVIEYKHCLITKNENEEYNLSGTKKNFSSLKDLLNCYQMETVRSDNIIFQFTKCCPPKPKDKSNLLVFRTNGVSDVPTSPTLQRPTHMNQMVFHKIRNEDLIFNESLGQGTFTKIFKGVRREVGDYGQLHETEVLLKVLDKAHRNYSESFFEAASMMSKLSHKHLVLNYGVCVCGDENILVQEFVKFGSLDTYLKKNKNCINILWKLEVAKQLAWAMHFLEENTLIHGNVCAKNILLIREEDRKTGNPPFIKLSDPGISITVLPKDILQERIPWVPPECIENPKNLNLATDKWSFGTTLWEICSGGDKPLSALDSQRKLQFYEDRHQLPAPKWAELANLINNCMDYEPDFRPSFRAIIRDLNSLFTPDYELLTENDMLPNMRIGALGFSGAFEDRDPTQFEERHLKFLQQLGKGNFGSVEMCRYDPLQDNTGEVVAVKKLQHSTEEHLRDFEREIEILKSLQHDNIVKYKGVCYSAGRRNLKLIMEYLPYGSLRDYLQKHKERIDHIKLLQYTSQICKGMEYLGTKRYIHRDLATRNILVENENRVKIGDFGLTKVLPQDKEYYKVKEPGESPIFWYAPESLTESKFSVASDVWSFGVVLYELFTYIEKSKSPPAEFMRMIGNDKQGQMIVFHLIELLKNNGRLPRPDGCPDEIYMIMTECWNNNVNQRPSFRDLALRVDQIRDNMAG

Chain of JAK1 (P23458 whole entry): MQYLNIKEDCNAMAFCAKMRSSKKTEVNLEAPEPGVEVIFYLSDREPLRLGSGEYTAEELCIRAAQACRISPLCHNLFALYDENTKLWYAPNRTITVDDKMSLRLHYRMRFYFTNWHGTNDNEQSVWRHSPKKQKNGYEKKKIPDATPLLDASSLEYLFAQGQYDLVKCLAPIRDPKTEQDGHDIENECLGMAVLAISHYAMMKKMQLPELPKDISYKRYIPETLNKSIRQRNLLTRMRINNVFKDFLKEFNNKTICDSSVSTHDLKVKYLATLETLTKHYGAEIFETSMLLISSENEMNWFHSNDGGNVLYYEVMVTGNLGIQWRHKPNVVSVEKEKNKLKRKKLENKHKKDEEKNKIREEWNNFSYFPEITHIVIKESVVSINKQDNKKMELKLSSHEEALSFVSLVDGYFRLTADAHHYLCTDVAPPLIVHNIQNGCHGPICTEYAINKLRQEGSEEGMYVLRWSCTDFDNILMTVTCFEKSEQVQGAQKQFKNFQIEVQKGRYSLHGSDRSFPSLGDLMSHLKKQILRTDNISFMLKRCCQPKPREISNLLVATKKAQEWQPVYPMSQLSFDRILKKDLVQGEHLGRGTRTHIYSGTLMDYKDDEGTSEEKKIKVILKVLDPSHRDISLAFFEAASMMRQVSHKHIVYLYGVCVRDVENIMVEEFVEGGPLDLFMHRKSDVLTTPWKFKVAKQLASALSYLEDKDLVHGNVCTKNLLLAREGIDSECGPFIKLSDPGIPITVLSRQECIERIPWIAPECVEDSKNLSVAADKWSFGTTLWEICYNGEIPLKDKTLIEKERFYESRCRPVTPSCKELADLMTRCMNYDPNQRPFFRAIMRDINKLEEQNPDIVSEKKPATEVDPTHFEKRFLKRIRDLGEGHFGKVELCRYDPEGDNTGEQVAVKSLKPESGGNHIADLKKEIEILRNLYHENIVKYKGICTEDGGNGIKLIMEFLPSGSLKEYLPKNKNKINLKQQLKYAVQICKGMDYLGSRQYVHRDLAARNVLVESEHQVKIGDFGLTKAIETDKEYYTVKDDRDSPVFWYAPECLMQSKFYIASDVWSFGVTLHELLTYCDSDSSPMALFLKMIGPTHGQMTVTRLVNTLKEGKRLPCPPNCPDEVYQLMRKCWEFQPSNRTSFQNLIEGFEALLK
Chain of JAK3 (P52333 whole entry): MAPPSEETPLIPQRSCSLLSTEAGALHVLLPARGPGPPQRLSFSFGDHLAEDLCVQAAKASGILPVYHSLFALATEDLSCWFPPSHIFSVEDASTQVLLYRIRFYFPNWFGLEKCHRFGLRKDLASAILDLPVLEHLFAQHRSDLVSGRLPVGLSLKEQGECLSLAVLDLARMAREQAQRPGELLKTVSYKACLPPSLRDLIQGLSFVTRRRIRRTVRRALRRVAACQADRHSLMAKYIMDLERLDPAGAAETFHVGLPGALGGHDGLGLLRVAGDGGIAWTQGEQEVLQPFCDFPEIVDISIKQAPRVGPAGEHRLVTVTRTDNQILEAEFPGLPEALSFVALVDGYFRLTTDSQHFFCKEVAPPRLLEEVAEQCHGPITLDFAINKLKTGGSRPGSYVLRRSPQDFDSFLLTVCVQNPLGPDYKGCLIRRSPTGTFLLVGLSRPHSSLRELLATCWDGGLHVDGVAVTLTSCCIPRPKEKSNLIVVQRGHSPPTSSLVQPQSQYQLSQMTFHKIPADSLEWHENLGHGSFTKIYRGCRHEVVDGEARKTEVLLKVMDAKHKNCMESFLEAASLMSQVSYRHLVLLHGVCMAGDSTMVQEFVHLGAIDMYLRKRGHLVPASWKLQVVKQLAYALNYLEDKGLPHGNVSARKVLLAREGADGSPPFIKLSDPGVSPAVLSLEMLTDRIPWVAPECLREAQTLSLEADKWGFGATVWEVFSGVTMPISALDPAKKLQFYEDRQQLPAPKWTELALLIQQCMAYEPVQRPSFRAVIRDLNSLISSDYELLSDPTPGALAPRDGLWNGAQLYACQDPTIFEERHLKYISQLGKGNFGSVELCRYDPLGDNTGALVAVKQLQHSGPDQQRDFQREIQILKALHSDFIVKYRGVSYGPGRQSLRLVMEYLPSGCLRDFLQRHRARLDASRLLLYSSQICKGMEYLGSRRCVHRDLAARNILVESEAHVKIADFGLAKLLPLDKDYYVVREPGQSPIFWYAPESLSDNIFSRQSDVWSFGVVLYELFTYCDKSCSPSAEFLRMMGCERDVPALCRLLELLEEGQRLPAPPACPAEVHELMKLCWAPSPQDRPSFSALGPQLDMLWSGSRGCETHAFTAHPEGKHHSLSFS

As to `C=CC(=O)N(C)c1cc(Nc2ncc(C)c(NCCCNC(=O)c3ccc(C#N)cc3)n2)ccc1F` [Example 58, 4-cyano-N-(3-(2-(4-fluoro-3-(N-methylacrylamido)phenylamino)-5-methylpyrimidinyl-4-amino)propyl)benzamide], the activity in the assay on HeLa cells was determined as 88%. Also, in the assay with CTLL-2 cells, the activity at 0.3 µM worked out at 54%. On JAK1, the “JAK1 RV (ratio between the inhibitory rate of the test compound and that of Xeljanz)” value was found to be 0.01; the inhibition at 0.3 µM amounted to 1%. Further, at JAK3, the “JAK3 RV (ratio between the inhibitory rate of the test compound and that of Xeljanz)” value is 0.79; the inhibition at 0.03 µM stood at 107%. In addition, on JAK2, the inhibition at 0.03 µM worked out at 0%.
As for `C=CC(=O)N(C)c1cc(Nc2ncc(F)c(NCCCNC(=O)c3ccc(C#N)cc3)n2)ccc1F` [Example 60, 4-cyano-N-(3-(5-fluoro-2-(4-fluoro-3-(N-methylacrylamido)phenylamino)pyrimidinyl-4-amino)propyl)benzamide], the activity in the assay with HeLa cells came out at 94%. In the assay with CTLL-2 cells, the activity at 0.3 µM came to 79%. Also, the inhibition at 0.3 µM on JAK1 was 0%. Further, on JAK3, the “JAK3 RV (ratio between the inhibitory rate of the test compound and that of Xeljanz)” value is 0.79; the inhibition at 0.03 µM is 106%. Moreover, the inhibition at 0.03 µM at JAK2 worked out at 0%.
For the compound `C=CC(=O)N(C)c1cc(Nc2ncc(Cl)c(NCCCNC(=O)Cc3ccc(C#N)cc3)n2)ccc1F` [Example 64, N-(5-(5-chloro-4-(3-(2-(4-cyanophenyl)acetamino)propylamino)pyrimidinyl-2-amino)-2-fluorophenyl)-N-methylacrylamide], the activity with HeLa cells is 78%. Besides, the activity at 0.3 µM in the assay on CTLL-2 cells was 37%. Also, at JAK1, the “JAK1 RV (ratio between the inhibitory rate of the test compound and that of Xeljanz)” value is on record as 0.13; the inhibition at 0.3 µM stood at 13%. On JAK3, the “JAK3 RV (ratio between the inhibitory rate of the test compound and that of Xeljanz)” value was 0.78; the inhibition at 0.03 µM was determined as 105%. Besides, the inhibition at 0.03 µM on JAK2 is 0%.
As for `C=CC(=O)N(C)c1cc(Nc2ncc(Cl)c(NCCCNS(=O)(=O)c3ccc(C#N)cc3)n2)ccc1F` [Example 68, 4-cyano-N-(3-(5-chloro-2-(4-fluoro-3-(N-methylacrylamido)phenylamino)pyrimidinyl-4-amino)propyl)benzenesulfonamide], the activity in the assay on HeLa cells was found to be 110%. For the same compound, the activity at 0.3 µM in the assay on CTLL-2 cells came to 69%. For the same compound, on JAK1, the “JAK1 RV (ratio between the inhibitory rate of the test compound and that of Xeljanz)” value amounted to 0.15; the inhibition at 0.3 µM was 15%. Also, on JAK3, the “JAK3 RV (ratio between the inhibitory rate of the test compound and that of Xeljanz)” value is listed as 0.76; the inhibition at 0.03 µM stood at 103%. Further, the inhibition at 0.03 µM at JAK2 is 0%.
With `C=CC(=O)N(C)c1cc(Nc2ncc(Cl)c(OCCCNC(=O)c3ccc(C#N)cc3)n2)ccc1F` [Example 71, N-(3-(5-chloro-2-(4-fluoro-3-(N-methylacrylamido)phenylamino)pyrimidinyl-4-oxo)propyl)-4-cyano-benzamide], the activity with HeLa cells turned out to be 112%. In the assay with CTLL-2 cells, the activity at 0.3 µM was determined as 70%. Moreover, on JAK1, the “JAK1 RV (ratio between the inhibitory rate of the test compound and that of Xeljanz)” value was 0.70; the inhibition at 0.3 µM stood at 7%. Also, on JAK3, the “JAK3 RV (ratio between the inhibitory rate of the test compound and that of Xeljanz)” value turned out to be 0.70; the inhibition at 0.03 µM is 95%. Besides, at JAK2, the “JAK2 RV (ratio between the inhibitory rate of the test compound and that of Xeljanz)” value was found to be 0.01; the inhibition at 0.03 µM was 1%.
On to `C=CC(=O)N(C)c1cc(Nc2ncc(Cl)c(NCCCNC(=O)c3ccncc3)n2)ccc1F` [Example 75, N-(3-(5-chloro-2-(4-fluoro-3-(N-methylacrylamido)phenylamino)pyrimidinyl-4-amino)propyl)isonicotinamide], for which, in the assay with HeLa cells, the activity is 102%. For the same compound, in the assay on CTLL-2 cells, the activity at 0.3 µM amounted to 49%. At JAK1, the “JAK1 RV (ratio between the inhibitory rate of the test compound and that of Xeljanz)” value was found to be 0.14; the inhibition at 0.3 µM is 14%. For the same compound, at JAK3, the “JAK3 RV (ratio between the inhibitory rate of the test compound and that of Xeljanz)” value came to 0.90; the inhibition at 0.03 µM was 121%. Besides, at JAK2, the inhibition at 0.03 µM came out at 0%.
Turning to `C=CC(=O)N(C)c1cc(Nc2ncc(Cl)c(NCCCNC(=O)c3ccc(CC)cc3)n2)ccc1F` [Example 79, N-(3-(5-chloro-2-(4-fluoro-3-(N-methylacrylamido)phenylamino)pyrimidinyl-4-amino)propyl)-4-ethylbenzamide], in the assay with HeLa cells, the activity worked out at 78%. The activity at 0.3 µM in the assay with CTLL-2 cells stood at 3%. Also, at JAK1, the “JAK1 RV (ratio between the inhibitory rate of the test compound and that of Xeljanz)” value is reported as 0.22; the inhibition at 0.3 µM is 19%. Moreover, on JAK3, the “JAK3 RV (ratio between the inhibitory rate of the test compound and that of Xeljanz)” value is 0.96; the inhibition at 0.03 µM amounted to 80%. For the same compound, the inhibition at 0.03 µM at JAK2 turned out to be 0%.
